We go through five compounds from ChEMBL document CHEMBL3124915, “One-step semisynthesis of oleacein and the determination as a 5-lipoxygenase inhibitor” (J Nat Prod, 2014).

By inhibition is commonly meant the share of the control response that was lost under treatment. As usually defined, the pIC50 is the negative decadic logarithm of the IC50, by convention in mol/L.

pIC50: −log10 of the molar value.

Experiment [1] addresses T1, Polyunsaturated fatty acid 5-lipoxygenase (Homo sapiens) (UniProt P09917).
T1 sequence (whole entry): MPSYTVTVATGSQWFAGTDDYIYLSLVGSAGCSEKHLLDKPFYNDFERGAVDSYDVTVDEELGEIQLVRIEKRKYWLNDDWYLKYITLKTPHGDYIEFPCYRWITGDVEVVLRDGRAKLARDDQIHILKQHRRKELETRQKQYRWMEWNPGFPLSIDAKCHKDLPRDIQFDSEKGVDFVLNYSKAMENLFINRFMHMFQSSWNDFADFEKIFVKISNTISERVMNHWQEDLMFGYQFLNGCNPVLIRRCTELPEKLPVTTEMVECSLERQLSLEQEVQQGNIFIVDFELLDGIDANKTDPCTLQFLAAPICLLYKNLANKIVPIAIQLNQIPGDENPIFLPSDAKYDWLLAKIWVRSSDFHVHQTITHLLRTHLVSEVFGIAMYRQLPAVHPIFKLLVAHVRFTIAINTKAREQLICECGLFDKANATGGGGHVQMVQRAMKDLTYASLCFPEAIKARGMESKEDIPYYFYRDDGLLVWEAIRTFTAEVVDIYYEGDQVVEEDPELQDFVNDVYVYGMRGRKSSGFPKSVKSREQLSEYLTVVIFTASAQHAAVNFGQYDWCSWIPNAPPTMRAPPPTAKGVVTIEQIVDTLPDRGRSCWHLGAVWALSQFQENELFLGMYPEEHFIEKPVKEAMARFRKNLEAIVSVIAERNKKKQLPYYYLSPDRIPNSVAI
In words: Inhibition of human recombinant 5-lipoxygenase expressed in Escherichia coli Bl21 (DE3) using arachidonic acid as substrate preincubated at 10 uM for 10 mins before substrate addition measured after 10 mins by HPLC analysis.

In experiment [2] the target is T2, Polyunsaturated fatty acid 5-lipoxygenase (Homo sapiens, UniProt P09917).
T2 sequence (P09917 whole entry): T1 sequence (whole entry)
Nature of the experiment: Inhibition of human recombinant 5-lipoxygenase using arachidonic acid as substrate preincubated for 10 mins before substrate addition measured after 10 mins by HPLC analysis.

Regarding `C/C=C(/C=O)[C@@H](CC=O)CC(=O)OCCc1ccc(O)cc1`, the inhibition in experiment [1] is 48%.

For `C/C=C(/C=O)[C@@H](CC=O)CC(=O)OCCc1ccc(O)c(O)c1`, in experiment [2], the pIC50 is 5.70. For the same compound, the inhibition in experiment [1] turned out to be 90%.

`OCCc1ccc(O)cc1`: the inhibition in experiment [1] worked out at 20%.

With `OCCc1ccc(O)c(O)c1` [HYDROXYTYROSOL], the pIC50 in experiment [2] was 4.89. Further, in experiment [1], the inhibition came to 48%.

`C/C=C1/[C@H](O[C@@H]2O[C@H](CO)[C@@H](O)[C@H](O)[C@H]2O)OC=C(C(=O)OC)[C@H]1CC(=O)OCCc1ccc(O)c(O)c1`: the inhibition in experiment [1] is 35%.
